Experimental data from the CheMixHub viscosity set.
Values joined by “and” are separate entries in the source; they are usually repeats but may differ in a detail not shown here. Equal entries are not always repeated.

Test: xn = mol fraction of the nth substance listed

Cc1ccccc1C + CC(C)CC(C)(C)C
308.15 K, 101 kPa
Conditions | viscosity [mPa·s]
x2 = 0.1337 | 0.6095
x2 = 0.2492 | 0.5663
x2 = 0.3373 | 0.539
x2 = 0.4352 | 0.5141
x2 = 0.5589 | 0.4878
x2 = 0.6421 | 0.4734
x2 = 0.7365 | 0.4602
x2 = 0.8167 | 0.4525
x2 = 0.917 | 0.4417

CN1CCN(C)C1=O + CCCCCCCCn1cc[n+](C)c1.[Cl-]
100 kPa
Conditions | viscosity [mPa·s]
293.15 K, x2 = 0.6016 | 985.8
313.15 K, x2 = 0.7994 | 773.5
318.15 K, x2 = 0.105 | 3.715
323.15 K, x2 = 0.7994 | 404.5

Cc1ccc(N)cc1 + O=[N+]([O-])c1ccccc1O
323.1 K, 101 kPa
Conditions | viscosity [mPa·s]
x2 = 0.296 | 1.835
x2 = 0.75 | 2.15

CCCCCCCCCCO + CC#N
viscosity [mPa·s], 101 kPa
Conditions | 298.15 K | 303.15 K | 308.15 K
x2 = 0.0939 | 8.794 | 7.622 | 6.471
x2 = 0.2005 | 6.554 | 5.66 | 4.934
x2 = 0.301 | 4.932 | 4.226 | 3.648
x2 = 0.3902 | 3.872 | 3.394 | 2.877
x2 = 0.4935 | 2.848 | 2.467 | 2.15
x2 = 0.6249 | 1.83 | 1.678 | 1.441
x2 = 0.7216 | 1.302 | 1.189 | 1.053
x2 = 0.7933 | 1.021 | 0.864 | 0.777
x2 = 0.8544 | 0.79 | 0.636 | 0.586
x2 = 0.9006 | 0.548 | 0.51 | 0.479
x2 = 0.9382 | 0.46 | 0.431 | 0.411
x2 = 0.9708 | 0.395 | 0.379 | 0.358

NC(N)=O + C[N+](C)(C)CCO.[Cl-]
viscosity
Conditions | 100 kPa | 101 kPa
293.15 K, x2 = 0.326 | 1696 mPa·s | –
298.15 K, x2 = 0.33 | 952.7 mPa·s | –
298.15 K, x2 = 0.333 | 750 mPa·s and 1264 mPa·s | 859.5 mPa·s
298.15 K, x2 = 0.3333 | – | 748.1 mPa·s
303 K, x2 = 0.3333 | – | 427.4 mPa·s
303.15 K, x1 = 0.7 | – | 893 mPa·s
303.15 K, x2 = 0.326 | 635.5 mPa·s | –
303.15 K, x2 = 0.33 | 628.9 mPa·s | 536.9 mPa·s
303.15 K, x2 = 0.333 | 562.7 mPa·s | –
303.15 K, x2 = 0.3333 | – | 511.6 mPa·s
308 K, x2 = 0.333 | – | 402.8 mPa·s
308 K, x2 = 0.3333 | – | 310.5 mPa·s
308.15 K, x2 = 0.326 | 414.6 mPa·s | –
308.15 K, x2 = 0.33 | 421.9 mPa·s | –
308.15 K, x2 = 0.333 | – | 348.2 mPa·s
308.15 K, x2 = 0.3333 | – | 351.5 mPa·s
313 K, x2 = 0.333 | – | 228 mPa·s
313 K, x2 = 0.3333 | – | 225.8 mPa·s
313.15 K, x2 = 0.326 | 280.7 mPa·s | –
313.15 K, x2 = 0.33 | 314 mPa·s | 242.5 mPa·s
313.15 K, x2 = 0.333 | 296.3 mPa·s | –
313.15 K, x2 = 0.3333 | – | 243 mPa·s
318 K, x2 = 0.3333 | – | 163.3 mPa·s
318.15 K, x2 = 0.326 | 196.4 mPa·s | –
318.15 K, x2 = 0.33 | 224.4 mPa·s | –
318.15 K, x2 = 0.333 | 244.7 mPa·s | 175.1 mPa·s
318.15 K, x2 = 0.3333 | – | 169.6 mPa·s
323 K, x2 = 0.333 | – | 105.6 mPa·s
323 K, x2 = 0.3333 | – | 121 mPa·s
323.15 K, x1 = 0.7 | – | 197 mPa·s
323.15 K, x2 = 0.326 | 142 mPa·s | –
323.15 K, x2 = 0.33 | 161.2 mPa·s | –
323.15 K, x2 = 0.333 | 171.5 mPa·s and 198.4 mPa·s | –

OCCOCCOCCO + CCOC(C)=O
101 kPa
Conditions | viscosity [mPa·s]
298.15 K, x2 = 0.1482 | 22.05
308.15 K, x2 = 0.0466 | 18.65

NC(N)=O + CCCO
viscosity [mPa·s], 101 kPa
Conditions | 298.15 K | 303.15 K | 308.15 K | 313.15 K | 318.15 K
x1 = 0.025 | 2.16 | 1.896 | 1.691 | 1.502 | 1.339
x1 = 0.0385 | 2.24 | 2.003 | 1.768 | 1.568 | 1.401

CC(C)CCC[C@@H](C)[C@H]1CC[C@H]2[C@@H]3CC=C4C[C@@H](O)CC[C@]4(C)[C@H]3CC[C@]12C + ClCCCl
viscosity [mPa·s], 101.33 kPa
Conditions | 298 K | 303 K | 313 K | 323 K
x1 = 0.00307 | 0.794 | 0.743 | 0.659 | 0.587
x1 = 0.00516 | 0.812 | 0.761 | 0.673 | 0.599
x1 = 0.00648 | 0.825 | 0.772 | 0.682 | 0.608
x1 = 0.00816 | 0.84 | 0.785 | 0.692 | 0.619

NC(N)=O + CCO
viscosity [mPa·s], 101 kPa
Conditions | 293.15 K | 298.15 K | 303.15 K | 308.15 K | 313.15 K | 318.15 K | 323.15 K
x1 = 0.02956 | 1.328 | 1.204 | 1.095 | 0.999 | 0.914 | 0.839 | 0.772
x1 = 0.03764 | 1.386 | 1.251 | 1.134 | 1.031 | 0.94 | 0.859 | 0.788
x1 = 0.04782 | 1.476 | 1.329 | 1.202 | 1.09 | 0.991 | 0.904 | 0.828

OCCN(CCO)CCO + O
viscosity
Conditions | 293.15 K | 298.15 K | 303.15 K | 308.15 K | 313.15 K | 323.15 K
101 kPa, x1 = 0.029 | 2 mPa·s | – | – | – | – | 0.988 mPa·s
101 kPa, x1 = 0.0434 | – | 2.499 mPa·s | 2.194 mPa·s | – | 1.661 mPa·s | –
101 kPa, x1 = 0.0649 | – | 3.802 mPa·s | 3.446 mPa·s | – | 2.406 mPa·s | –
101 kPa, x1 = 0.0966 | – | 6.839 mPa·s | 5.658 mPa·s | – | 4.005 mPa·s | –
101 kPa, x1 = 0.11 | 8.51 mPa·s | – | – | – | – | 3.24 mPa·s
101 kPa, x1 = 0.1312 | – | 11.65 mPa·s | 9.419 mPa·s | – | 6.419 mPa·s | –
101 kPa, x1 = 0.1769 | – | 20.76 mPa·s | 16.89 mPa·s | – | 10.97 mPa·s | –
101 kPa, x1 = 0.27 | 64.6 mPa·s | – | – | – | – | 14.8 mPa·s
101 kPa, x1 = 0.2724 | – | 54.52 mPa·s | 41.37 mPa·s | – | 25.21 mPa·s | –
101 kPa, x1 = 0.3481 | – | 96.45 mPa·s | 73.09 mPa·s | – | 41.11 mPa·s | –
101 kPa, x1 = 0.4784 | – | 187.3 mPa·s | 131.4 mPa·s | – | 70.8 mPa·s | –
101 kPa, x1 = 0.5814 | – | 278.1 mPa·s | 187.2 mPa·s | – | 97.64 mPa·s | –
101 kPa, x1 = 0.7166 | – | 390.4 mPa·s | 269.9 mPa·s | – | 138.2 mPa·s | –
101 kPa, x1 = 0.8347 | – | 472.7 mPa·s | 328.9 mPa·s | – | 166.2 mPa·s | –
101 kPa, x1 = 0.9177 | – | 542.7 mPa·s | 369.7 mPa·s | – | 184.6 mPa·s | –
101 kPa, x1 = 0.9724 | – | 585.3 mPa·s | 396.2 mPa·s | – | 196.3 mPa·s | –
101.3 kPa, x1 = 0.0064 | 1.141 mPa·s | 0.998 mPa·s | 0.872 mPa·s | 0.765 mPa·s | 0.664 mPa·s | 0.555 mPa·s
101.3 kPa, x1 = 0.0134 | 1.33 mPa·s | 1.161 mPa·s | 1.039 mPa·s | 0.914 mPa·s | 0.801 mPa·s | 0.688 mPa·s
101.3 kPa, x1 = 0.0294 | – | 1.789 mPa·s | 1.559 mPa·s and 1.57 mPa·s | 1.369 mPa·s | – | 0.988 mPa·s

Cc1ccccc1C + CCCO
viscosity [mPa·s], 100 kPa
Conditions | 298.15 K | 308.15 K
x2 = 0.063 | 0.7471 | 0.6664
x2 = 0.123 | 0.7703 | 0.6751
x2 = 0.2215 | 0.784 | 0.6782
x2 = 0.3496 | 0.8508 | 0.7537
x2 = 0.4648 | 0.9239 | 0.806
x2 = 0.5689 | 1.017 | 0.8647
x2 = 0.6634 | 1.124 | 0.9367
x2 = 0.7497 | 1.264 | 1.029
x2 = 0.8287 | 1.454 | 1.155
x2 = 0.9014 | 1.626 | 1.275
x2 = 0.9684 | 1.836 | 1.49
